Measurements: patent publication US20110053897A1 (IRM LLC, priority 2009, published 2011)
pIC50: −log10 of the molar value.

Molecular target: T1, Syk kinase (Homo sapiens, UniProt P43405)
T1 construct: purchased
Assay: Syk kinase inhibition, Caliper LabChip off-chip mobility-shift kinase assay
Type: biochemical
Conditions: read-out: Syk Enzyme IC50
Method in brief: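 Purified Syk pre-incubated 15 min with compound in 100 mM HEPES pH 7.5, 1 mM DTT, 10 mM MgCl2 or MnCl2, 0.002% Brij-35, then 1.5 μM fluorescein peptide and ATP at apparent KM added; 1–1.5 h at room temperature, 4% DMSO, EDTA stop. Microfluidic mobility-shift product/substrate conversion gave % inhibition; IC50 from 12-point series (10–0.00003 μM) by 4-parameter fit.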

SMILES	pIC50
O=c1[nH]ccc2cc(Nc3ccccn3)nc(N3CCOCC3)c12 [compound 286]	6.02
CC(C)CNc1nc(Nc2ccccn2)cc2cc[nH]c(=O)c12 [compound 288]	6.16
O=c1[nH]ccc2cc(Nc3ccccn3)nc(NCCc3cccnc3)c12 [compound 289]	6.64
CC[C@H](C)Nc1nc(Nc2ccccn2)cc2cc[nH]c(=O)c12 [compound 290]	6.57
C[C@@H](CO)Nc1nc(Nc2ccccn2)cc2cc[nH]c(=O)c12 [compound 298]	6.81
C[C@H](CO)Nc1nc(Nc2ccccn2)cc2cc[nH]c(=O)c12 [compound 299]	7.17
CCc1ccnc(Nc2cc3ccn(CC)c(=O)c3c(NC(C)C)n2)c1 [compound 304]	6.42
CCn1ccc2cc(Nc3cc(Cl)ccn3)nc(NC(C)C)c2c1=O [compound 305]	6.59
CCCc1ccnc(Nc2cc3ccn(CC)c(=O)c3c(NC(C)C)n2)c1 [compound 306]	6.21
CCn1ccc2cc(Nc3cnccn3)nc(NC(C)C)c2c1=O [compound 307]	7.22
Cc1ccnc(Nc2cc3ccn(C)c(=O)c3c(Nc3ccc(C4CCNCC4)cc3)n2)c1 [compound 308]	8.15
Cc1ccnc(Nc2cc3ccn(C)c(=O)c3c(Nc3ccc(C4CCN(C)CC4)cc3)n2)c1 [compound 309]	7.80
CC(=O)N1CCC(c2ccc(Nc3nc(Nc4cc(C)ccn4)cc4ccn(C)c(=O)c34)cc2)CC1 [compound 310]	6.12
Cc1ccnc(Nc2cc3ccn(C)c(=O)c3c(Nc3ccc(C4CCN(CCS(C)(=O)=O)CC4)cc3)n2)c1 [compound 311]	6.30
Cc1ccnc(Nc2cc3ccn(CCO)c(=O)c3c(NC(C)C)n2)c1 [compound 313]	7.07
COCCn1ccc2cc(Nc3cc(C)ccn3)nc(NC(C)C)c2c1=O [compound 314]	6.63
Cc1ccnc(Nc2cc3ccn(CCN4CCOCC4)c(=O)c3c(NC(C)C)n2)c1 [compound 315]	6.42
CCNC(=O)Cn1ccc2cc(Nc3cc(C)ccn3)nc(NC(C)C)c2c1=O [compound 316]	6.57
CC(C)Nc1nc(Nc2cnccn2)cc2ccn(CCO)c(=O)c12 [compound 318]	7.28

The next lines start with the values.

pIC50	SMILES
6.30	Cc1ccnc(Nc2cc3cc[nH]c(=O)c3c(NCC(C)C)n2)c1 [compound 282]
6.35	CC[C@H](C)Nc1nc(Nc2cc(C)ccn2)cc2cc[nH]c(=O)c12 [compound 283]
6.78	Cc1ccnc(Nc2cc3cc[nH]c(=O)c3c(NCCc3cccnc3)n2)c1 [compound 284]
6.70	Cc1ccnc(Nc2cc3cc[nH]c(=O)c3c(NCC3CC3)n2)c1 [compound 285]
6.83	O=c1[nH]ccc2cc(Nc3ccccn3)nc(NC3CCOC3)c12 (centres unmarked) [compound 287]
6.51	O=c1[nH]ccc2cc(Nc3ccccn3)nc(NCC3CC3)c12 [compound 291]
6.75	Cc1ccnc(Nc2cc3cc[nH]c(=O)c3c(NC3CCCC3)n2)c1 [compound 292]
6.84	Cc1ccnc(Nc2cc3cc[nH]c(=O)c3c(NC3CCOCC3)n2)c1 [compound 293]
7.00	Cc1ccnc(Nc2cc3cc[nH]c(=O)c3c(N[C@@H](C)CO)n2)c1 [compound 294]
7.70	Cc1ccnc(Nc2cc3cc[nH]c(=O)c3c(N[C@H](C)CO)n2)c1 [compound 295]
6.82	O=c1[nH]ccc2cc(Nc3ccccn3)nc(NC3CCCC3)c12 [compound 296]
6.47	O=c1[nH]ccc2cc(Nc3ccccn3)nc(NC3CCOCC3)c12 [compound 297]
5.81	Cc1ccnc(Nc2cc3cc[nH]c(=O)c3c(NC3CNC3)n2)c1 [compound 300]
7.43	Cc1ccnc(Nc2cc3cc[nH]c(=O)c3c(N[C@@H]3CCOC3)n2)c1 [compound 301]
7.08	Cc1ccnc(Nc2cc3cc[nH]c(=O)c3c(N[C@H]3CCOC3)n2)c1 [compound 302]
7.77	Cc1ccnc(Nc2cc3cc[nH]c(=O)c3c(N[C@H]3CC[C@@H](O)CC3)n2)c1 [compound 303]
